From patent US8952024B2, “Herbicidal pyrimidone derivatives” (E I du Pont de Nemours and Company, priority 2009, dated 2015)

Tests used:
Assay type in all cases: in vivo
[1] = system: umbrella sedge (Cyperus difformis); test: Test B flooded paddy test; conditions: for Plant response rating, Flood, Sedge, Umbrella: 250 g ai/ha, flooded paddy test, visual rating on 0 to 100 scale (0 no effect, 100 complete control) after 13 to 15 days; for Plant response rating, Sedge, Umbrella: Flood (flooded paddy test), 13 to 15 days
In short: (§1)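 2-leaf seedlings; pots flooded 3 cm over soil at treatment; cpd dosed into floodwater, depth kept constant. Greenhouse 13–15 d. Visual rating vs untreated controls, 0 = no effect, 100 = complete control.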

[2] = system: ducksalad (Heteranthera limosa); test: Test B flooded paddy test; conditions: for Plant response rating, Flood, Ducksalad: 250 g ai/ha, flooded paddy test, visual rating on 0 to 100 scale (0 no effect, 100 complete control) after 13 to 15 days; for Plant response rating, Ducksalad: Flood (flooded paddy test), 13 to 15 days
In short: as §1

rice (Oryza sativa) = test: Test B flooded paddy test; conditions: for Plant response rating, Flood, Rice: 250 g ai/ha, flooded paddy test, visual rating on 0 to 100 scale (0 no effect, 100 complete control) after 13 to 15 days; for Plant response rating, Rice: Flood (flooded paddy test), 13 to 15 days
In short: as §1

[3] = system: barnyardgrass (Echinochloa crus-galli); test: Test B flooded paddy test; conditions: for Plant response rating, Flood, Barnyardgrass: 250 g ai/ha, flooded paddy test, visual rating on 0 to 100 scale (0 no effect, 100 complete control) after 13 to 15 days; for Plant response rating, Barnyardgrass: Flood (flooded paddy test), 13 to 15 days
In short: as §1

[4] = system: goosegrass (Eleusine indica); test: Test B pre-/postemergence plant response; conditions: Preemergence, 62 g ai/ha; scale 0 to 100, 0 no effect, 100 complete control
[5] = system: windgrass (Apera spica-venti); test: Test B postemergence plant response
In short: (§2)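 Plants at the 1- to 4-leaf stage (2 to 18 cm tall), grown in pots of peat moss/vermiculite medium with wetting agent and starter nutrients, received postemergence applications of test chemicals. After 13 to 15 days in a greenhouse, injury was rated visually against untreated controls on a 0 (no effect) to 100 (complete control) scale.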

[6] = system: chickweed (Stellaria media); test: Test B postemergence plant response; conditions: for Chickweed plant response rating: 250 g ai/ha, scale 0 to 100
In short: as §2

[7] = system: winter barley (Hordeum vulgare); test: Test B postemergence plant response; conditions: for Barley plant response rating: 250 g ai/ha, scale 0 to 100
In short: as §2

[8] = system: canarygrass (Phalaris minor); test: Test B postemergence plant response; conditions: for Canarygrass plant response rating: 250 g ai/ha, scale 0 to 100
In short: as §2

[9] = system: pigweed (Amaranthus retroflexus); test: Test B pre-/postemergence plant response
In short: (§3)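 Greenhouse herbicide screen. Pre- and postemergence (1- to 4-leaf) spray of compound in solvent/surfactant mixture; loam–sand soil for pre, peat/vermiculite medium for post. Visual control rating 0–100 at 13 to 15 days after treatment.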

[10] = system: galium (catchweed bedstraw, Galium aparine); test: Test B pre-/postemergence plant response; conditions: Preemergence; for Galium plant response rating: 125 g ai/ha
In short: as §3

[11] = system: nightshade (eastern black nightshade, Solanum ptycanthum); test: Test B pre-/postemergence plant response; conditions: Preemergence; for Nightshade plant response rating: 125 g ai/ha
In short: as §3

[12] = system: sunflower (common oilseed sunflower, Helianthus annuus); test: Test B pre-/postemergence plant response; conditions: Preemergence; for Sunflower plant response rating: 125 g ai/ha
In short: as §3

wild oat (Avena fatua) = test: Test B pre-/postemergence plant response
In short: as §3

[13] = 62 g ai/ha, scale of 0 to 100 where 0 is no effect and 100 is complete control
[14] = Postemergence, 62 g ai/ha, scale 0 (no effect) to 100 (complete control), 13 to 15 days
[15] = Postemergence, 125 g ai/ha, visual rating after 13 to 15 days, scale 0 (no effect) to 100 (complete control)
[16] = Postemergence, 31 g ai/ha, scale 0 to 100 (0 no effect, 100 complete control)
[17] = 250 g ai/ha, Preemergence, 0 to 100 scale
[18] = Preemergence, 31 g ai/ha, scale 0 to 100 (0 no effect, 100 complete control)
[19] = Preemergence, 125 g ai/ha, 0 to 100 scale
[20] = 31 g ai/ha, scale 0 to 100 (0 no effect, 100 complete control)
[21] = 62 g ai/ha, scale 0 to 100, 0 no effect, 100 complete control
[22] = 31 g ai/ha, scale of 0 to 100 where 0 is no effect and 100 is complete control
[23] = 125 g ai/ha, scale 0 to 100, 0 is no effect, 100 is complete control
[24] = 31 g ai/ha, postemergence, scale 0 to 100, 0 is no effect, 100 is complete control

Compound: Cc1cc(F)ccc1-n1c(-c2ccccc2)ncc(C(=O)C2=C(O)CCCC2=O)c1=O [Compound 48]
- Plant response rating, Flood, Sedge, Umbrella [1]: 75
- Plant response rating, Sedge, Umbrella [1, 13]: 40
- Plant response rating, Flood, Ducksalad [2]: 85
- Plant response rating, Ducksalad [2, 13]: 0
- Plant response rating, Flood, Rice (rice (Oryza sativa)): 65
- Plant response rating, Rice (rice (Oryza sativa); [13]): 0
- Plant response rating, Flood, Barnyardgrass [3]: 35
- Plant response rating, Barnyardgrass [3, 13]: 0
- Plant response rating, Goosegrass [4]: 100
- Plant response rating, Windgrass [5, 14]: 80
- Plant response rating, Windgrass [5, 15]: 90
- Plant response rating, Chickweed [6, 16]: 85
- Plant response rating, Chickweed [6, 14]: 90
- Plant response rating, Chickweed [6, 15]: 95
- Chickweed plant response rating ([6]; Postemergence): 100
- Plant response rating, Barley [7, 16]: 5
- Plant response rating, Barley [7, 14]: 5
- Plant response rating, Barley [7, 15]: 10
- Barley plant response rating ([7]; Postemergence): 10
- Plant response rating, Canarygrass [8, 16]: 30
- Plant response rating, Canarygrass [8, 14]: 30
- Plant response rating, Canarygrass [8, 15]: 45
- Canarygrass plant response rating ([8]; Postemergence): 45
- Plant response rating, Pigweed [9, 17]: 100
- Plant response rating, Pigweed [9, 14]: 85
- Plant response rating, Pigweed [9, 15]: 100
- Plant response rating, Pigweed [9, 18]: 100
- Pigweed plant response rating [9, 19]: 100
- Plant response rating, Galium ([10]; 250 g ai/ha, 0 to 100 scale): 70
- Plant response rating, Galium [10, 20]: 0
- Plant response rating, Galium [10, 21]: 60
- Galium plant response rating ([10]; 0 to 100 scale): 60
- Plant response rating, Nightshade ([11]; 250 g ai/ha, 0 to 100 scale): 100
- Plant response rating, Nightshade [11, 20]: 100
- Plant response rating, Nightshade [11, 21]: 100
- Nightshade plant response rating ([11]; 0 to 100 scale): 100
- Plant response rating, Sunflower ([12]; 250 g ai/ha, 0 to 100 scale): 80
- Plant response rating, Sunflower [12, 20]: 0
- Sunflower plant response rating ([12]; 0 to 100 scale): 80
- Plant response rating, Oat, Wild (wild oat (Avena fatua); [17]): 15
- Plant response rating, Oat, Wild (wild oat (Avena fatua); [14]): 50
- Plant response rating, Oat, Wild (wild oat (Avena fatua); [15]): 85
- Plant response rating, Oat, Wild (wild oat (Avena fatua); [18]): 0
- Oat, Wild plant response rating (wild oat (Avena fatua); [19]): 0

Compound: CCn1c(-c2ccccc2)ncc(C(=O)C2=C(O)CCCC2=O)c1=O [Compound 49]
- Plant response rating, Flood, Sedge, Umbrella [1]: 85
- Plant response rating, Sedge, Umbrella [1, 22]: 0
- Plant response rating, Sedge, Umbrella [1, 13]: 0
- Plant response rating, Sedge, Umbrella [1, 23]: 0
- Plant response rating, Flood, Ducksalad [2]: 70
- Plant response rating, Ducksalad [2, 22]: 0
- Plant response rating, Ducksalad [2, 13]: 0
- Plant response rating, Ducksalad [2, 23]: 40
- Plant response rating, Flood, Rice (rice (Oryza sativa)): 15
- Plant response rating, Rice (rice (Oryza sativa); [22]): 0
- Plant response rating, Rice (rice (Oryza sativa); [13]): 0
- Plant response rating, Rice (rice (Oryza sativa); [23]): 10
- Plant response rating, Flood, Barnyardgrass [3]: 0
- Plant response rating, Barnyardgrass [3, 22]: 0
- Plant response rating, Barnyardgrass [3, 13]: 0
- Plant response rating, Barnyardgrass [3, 23]: 0
- Plant response rating, Goosegrass [4]: 95
- Plant response rating, Windgrass [5, 24]: 0
- Plant response rating, Windgrass [5, 14]: 0
- Plant response rating, Windgrass [5, 15]: 5
- Plant response rating, Chickweed [6, 24]: 75
- Plant response rating, Chickweed [6, 14]: 75
- Plant response rating, Chickweed [6, 15]: 80
- Chickweed plant response rating ([6]; Postemergence): 90
- Plant response rating, Barley [7, 24]: 0
- Plant response rating, Barley [7, 14]: 0
- Plant response rating, Barley [7, 15]: 0
- Barley plant response rating ([7]; Postemergence): 0
- Plant response rating, Canarygrass [8, 24]: 0
- Plant response rating, Canarygrass [8, 14]: 0
- Plant response rating, Canarygrass [8, 15]: 0
- Canarygrass plant response rating ([8]; Postemergence): 0
- Plant response rating, Pigweed [9, 24]: 80
- Plant response rating, Pigweed [9, 17]: 100
- Plant response rating, Pigweed [9, 14]: 90
- Plant response rating, Pigweed [9, 15]: 95
- Plant response rating, Pigweed [9, 18]: 100
- Pigweed plant response rating [9, 19]: 100
- Plant response rating, Galium ([10]; 250 g ai/ha, 0 to 100 scale): 95
- Plant response rating, Galium [10, 20]: 0
- Plant response rating, Galium [10, 21]: 80
- Galium plant response rating ([10]; 0 to 100 scale): 90
- Plant response rating, Nightshade ([11]; 250 g ai/ha, 0 to 100 scale): 98
- Plant response rating, Nightshade [11, 20]: 98
- Plant response rating, Nightshade [11, 21]: 98
- Nightshade plant response rating ([11]; 0 to 100 scale): 98
- Plant response rating, Sunflower ([12]; 250 g ai/ha, 0 to 100 scale): 75
- Plant response rating, Sunflower [12, 20]: 60
- Sunflower plant response rating ([12]; 0 to 100 scale): 75
- Plant response rating, Oat, Wild (wild oat (Avena fatua); [24]): 0
- Plant response rating, Oat, Wild (wild oat (Avena fatua); [17]): 0
- Plant response rating, Oat, Wild (wild oat (Avena fatua); [14]): 5
- Plant response rating, Oat, Wild (wild oat (Avena fatua); [15]): 5
- Plant response rating, Oat, Wild (wild oat (Avena fatua); [18]): 0
- Oat, Wild plant response rating (wild oat (Avena fatua); [19]): 0
